Source: patent publication EP4692094A1 (Beijing Konruns Pharmaceutical Co., Ltd., priority 2023, dated 2024)
Read-outs that look alike come from different tables or passages of the source.

Legend:
KAT8 = molecular target: T1, KAT8 (Homo sapiens, UniProt Q9H7Z6); assay: Enzymatic activity assay for KAT8 acetyltransferase (TR-FRET); format: biochemical; details: KAT8 10 nM, AcCOA 2 µM
T1 construct: purchased active motife (Active Motif) 81225
T1 sequence (Q9H7Z6 1-458): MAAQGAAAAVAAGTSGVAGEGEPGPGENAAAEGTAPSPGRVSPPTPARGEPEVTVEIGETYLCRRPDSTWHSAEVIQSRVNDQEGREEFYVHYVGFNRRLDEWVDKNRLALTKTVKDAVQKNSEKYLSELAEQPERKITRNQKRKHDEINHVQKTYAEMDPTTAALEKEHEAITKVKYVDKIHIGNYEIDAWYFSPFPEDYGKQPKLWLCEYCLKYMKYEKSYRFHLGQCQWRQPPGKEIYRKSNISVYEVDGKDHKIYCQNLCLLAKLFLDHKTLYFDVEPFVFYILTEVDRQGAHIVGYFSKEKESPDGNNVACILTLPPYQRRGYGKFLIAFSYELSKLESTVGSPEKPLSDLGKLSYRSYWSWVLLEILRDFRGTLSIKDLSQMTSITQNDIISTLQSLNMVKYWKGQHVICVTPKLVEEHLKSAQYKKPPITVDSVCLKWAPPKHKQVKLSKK
Procedure: (§1) The acetylation effects of KAT6B on histone substrate H3, as well as KAT5, KAT7, and KAT8 on histone substrate H4, were determined using the TR-FRET (time-resolved fluorescence resonance energy transfer) method. The determination was performed according to experimental procedures similar to those in "Pharmacological Experiment I": 1.2 Preparation of compounds: The compounds prepared in the examples were each dissolved in dimethylsulfoxide to give solutions at a concentration of 10 mmol/L. • 1) The compounds in the examples were each diluted from 10 mmol/L stock solution to 0.2 mmol/L, i.e., 1 µL of the compound was added to 49 µL of DMSO, and 3-fold dilution was performed to give 10 concentrations. • 2) 50 nL of the test compounds were transferred to 384 reaction plates using Echo, two replicates for each compound, and the plates were centrifuged at a rotation speed of 1000 rpm for 1 min, the final concentration of dimethylsulfoxide (DMSO) being 0.5%.
(§2) For KAT8: • 3) 2.5 µL of the KAT8 enzyme solution at a final concentration of 10 nM was added to the 384 reaction plates in step 2), and the plates were centrifuged at 1000 rpm for 1 min and incubated at 25 °C for 10 min. • 4) 2.5 µL of […] at a final concentration of 300 nM and an AcCOA (acetyl-CoA) reaction solution at a final concentration of 2 µM were added to the 384 reaction plates in step 3), and the plates were centrifuged at a rotation speed of 1000 rpm for 1 min and incubated at 25 °C for 90 min. • 5) 5 µL of Eu-Ab& Ulight-SA detection solution was separately added to the 384 reaction plates in step 4) of the 4 groups described above, and the plates were centrifuged at 1000 rpm for 1 min and incubated at 25 °C for 60 min. • 6) The HTRF […] signals were read using a BMG high-throughput drug-screening multi-mode microplate reader.
The acetylation levels of the histones in the groups were analyzed by the GraphPad Prism 8 software. […]

KAT7 = molecular target: T2, KAT7 (Homo sapiens, UniProt O95251); assay: Enzymatic activity assay for KAT7 acetyltransferase (TR-FRET, histone substrate H4); format: biochemical; details: KAT7 15 nM, H4 300 nM, AcCOA 2 µM
T2 construct: purchased ICE S02210F-H21HF
T2 sequence (O95251 whole entry): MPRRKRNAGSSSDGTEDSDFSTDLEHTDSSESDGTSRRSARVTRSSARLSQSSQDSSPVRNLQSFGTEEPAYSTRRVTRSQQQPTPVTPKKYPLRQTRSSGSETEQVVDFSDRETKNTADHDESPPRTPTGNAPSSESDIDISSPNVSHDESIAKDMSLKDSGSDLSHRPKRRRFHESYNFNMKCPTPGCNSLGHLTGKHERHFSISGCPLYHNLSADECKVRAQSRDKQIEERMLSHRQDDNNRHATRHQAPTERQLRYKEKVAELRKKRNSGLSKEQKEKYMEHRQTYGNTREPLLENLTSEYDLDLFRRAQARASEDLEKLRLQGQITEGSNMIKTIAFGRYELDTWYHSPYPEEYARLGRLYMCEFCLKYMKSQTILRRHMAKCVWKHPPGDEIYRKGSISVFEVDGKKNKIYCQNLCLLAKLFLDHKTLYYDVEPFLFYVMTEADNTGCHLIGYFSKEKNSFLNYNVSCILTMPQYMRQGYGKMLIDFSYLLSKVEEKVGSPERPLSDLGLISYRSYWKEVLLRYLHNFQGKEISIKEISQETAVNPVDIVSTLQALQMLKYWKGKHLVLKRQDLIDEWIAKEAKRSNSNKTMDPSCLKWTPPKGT
Procedure: as §1
For KAT7: • 3) 2.5 µL of the KAT7 enzyme solution at a final concentration of 15 nM was added to the 384 reaction plates in step 2), and the plates were centrifuged at 1000 rpm for 1 min and incubated at 25 °C for 10 min. • 4) 2.5 µL of H4 at a final concentration of 300 nM and an AcCOA (acetyl-CoA) reaction solution at a final concentration of 2 µM were added to the 384 reaction plates in step 3), and the plates were centrifuged at a rotation speed of 1000 rpm for 1 min and incubated at 25 °C for 90 min.
as §2
The acetylation levels of the histones in the groups were analyzed by the GraphPad Prism 8 software. The reading of the negative control (0.5% DMSO wells) was set as 0% inhibition rate, and the reading of the positive control (wells with the highest concentration of the control compound) was set as 100% inhibition rate. The inhibition rates were calculated, and then IC50 values (half maximal inhibitory concentration) of test compounds were obtained by using a software nonlinear fitting formula; [formula]
Datapositive control: mean of positive control well values; Datanegative control: mean of negative control well values. Table 5. Enzymatic inhibitory activity of example compounds

[1] = In-vivo pharmacokinetic study in beagle dogs; set-up: species or system male beagle dogs; details: dog, plasma, po, intragastric administration
Procedure: 1.1 Instrument: high-performance liquid chromatograph: SHIMADZU LC-30AD; mass spectrum: AB SCIEX mass spectrometer Triple Quad 5500; all measured data were calculated and processed using Microsoft Excel, and relevant pharmacokinetic parameters were calculated using WinNonlin software. […] Chromatographic column: Agilent EC-C18 2.7 µm (50 × 2.1 mm); column temperature: 40 °C; mobile phase A: water (0.1% formic acid); mobile phase B: acetonitrile; flow rate: 0.60 mL/min; gradient elution; elution gradient: 0.30 min: 5% B; 1.90 min: 95% B; 2.20 min: 95% B; 2.21 min: 5% B; 2.50 min: stop. Sample injection amount: 10 µL.
1.2 Animals: 3 male beagle dogs were used. The body weight range was 8-15 kg. The beagle dogs were fasted 12 h before administration and 4 h after administration, and given ad libitum access to water during the assay.
1.3 Vehicle: 0.5% HPMC (hydroxypropyl methylcellulose) + 0.4% Tween80 + 99.1% water.
After the intragastric administration, blood samples were taken at 0.25 h, 0.5 h, 1 h, 2 h, 4 h, 6 h, 8 h, 10 h, 12 h, 24 h, and 48 h. The blood collection mode is as follows: venipuncture was used, EDTA-K2 was used as an anticoagulation agent, the collected blood sample was transferred into a microcentrifuge tube containing the anticoagulation agent, and the tube was centrifuged at 4 °C and 2000 g for 10 min to separate the plasma. All plasma samples collected were stored at -75±15 °C until analysis.
1.4 Plasma sample pretreatment: 50 µL of the plasma sample was taken, and 200 µL of an internal standard solution prepared with acetonitrile was added for precipitation; subsequently, the sample was vortexed for 1 min and mixed homogenously; the precipitated sample was centrifuged at 4 °C and 3900 rpm for 15 min; the supernatant was pipetted, and water was added for 3-fold dilution; 10 µL of the sample was injected; and quantitative analysis was performed by adopting a liquid chromatography-mass spectrometry technology.
All measured data were collected and processed by the relevant software, and pharmacokinetic parameters were calculated using Winnonlin software. Pharmacokinetic parameters of some compounds in the examples in beagle dogs

[2] = male, 1 mg/kg, read-out: AUC0-48h

**Q.** With `COc1ccc2ccoc2c1S(=O)(=O)Nc1noc2cc(Cn3cccn3)nc(OC)c12` [Example 10, N-(6-((1H-Pyrazol-1-yl)methyl)-4-methoxyisoxazolo[4,5-c]pyridin-3-yl)-6-methoxybenzofuran-7-sulfonamide] as the molecule, how does the IC50 (KAT8) read?
**A.** 79.4 nM

**Q.** And the IC50 (KAT7)?
**A.** 7.42 nM

**Q.** And the half-life ([1]; male, beagle, 1 mg/kg)?
**A.** ≤ 15 h

**Q.** And the AUC(0-inf) ([1]; male, 1 mg/kg)?
**A.** 47500 ng·h/mL

**Q.** What about the Cmax ([1]; male, 1 mg/kg) of the same molecule?
**A.** 6250 ng/mL

**Q.** What about the Tmax ([1]; male, 1 mg/kg) of the same molecule?
**A.** 0.83 h

**Q.** What about the AUC(0-t) [1, 2] of the same molecule?
**A.** 46700 ng·h/mL

**Q.** Which IC50 (KAT8) does the source give for `COc1cc2c(cc1S(=O)(=O)Nc1noc3cc(Cn4cccn4)nc(OC)c13)CCCC2` [Example 2, N-(6-((1H-Pyrazol-1-yl)methyl)-4-methoxyisoxazolo[4,5-c]pyridin-3-yl)-3-methoxy-5,6,7,8-tetrahydronaphthalene-2-sulfonamide] here?
**A.** 118 nM

**Q.** And the IC50 (KAT7)?
**A.** 54 nM

**Q.** And the half-life ([1]; male, beagle, 0.6 mg/kg)?
**A.** 173 h

**Q.** And the AUC(0-inf) ([1]; male, 0.6 mg/kg)?
**A.** 379000 ng·h/mL

**Q.** And the Cmax ([1]; male, 0.6 mg/kg)?
**A.** 1800 ng/mL

**Q.** What about the Tmax ([1]; male, 0.6 mg/kg) of the same molecule?
**A.** 4 h

**Q.** What about the AUC(0-t) ([1]; male, 0.6 mg/kg, read-out: AUC0-48h) of the same molecule?
**A.** 66500 ng·h/mL

**Q.** Which results are given for `COc1ccc2c(c1S(=O)(=O)Nc1noc3cc(Cn4cccn4)nc(OC)c13)OCC2` [Example 9, N-(6-((1H-Pyrazol-1-yl)methyl)-4-methoxyisoxazolo[4,5-c]pyridin-3-yl)-6-methoxy-2,3-dihydrobenzofuran-7-sulfonamide]?
**A.** IC50 (KAT7): 47.5 nM; half-life ([1]; male, beagle, 1 mg/kg): ≤ 15 h; AUC(0-inf) ([1]; male, 1 mg/kg): 122000 ng·h/mL; Cmax ([1]; male, 1 mg/kg): 9230 ng/mL; Tmax ([1]; male, 1 mg/kg): 1.33 h; AUC(0-t) [1, 2]: 114000 ng·h/mL

**Q.** For `COc1cc2c(cc1S(=O)(=O)Nc1noc3cc(Cn4cccn4)nc(OC)c13)OCC2` [Example 59, N-(6-((1H-Pyrazol-1-yl)methyl)-4-methoxyisoxazolo[4,5-c]pyridin-3-yl)-5-methoxy-2,3-dihydrobenzofuran-6-sulfonamide], which IC50 (KAT8) is on record?
**A.** 327 nM

**Q.** What about the IC50 (KAT7) of the same molecule?
**A.** 27.4 nM

**Q.** And the half-life ([1]; male, beagle, 1 mg/kg)?
**A.** ≤ 15 h

**Q.** And the AUC(0-inf) ([1]; male, 1 mg/kg)?
**A.** 55900 ng·h/mL

**Q.** What about the Cmax ([1]; male, 1 mg/kg) of the same molecule?
**A.** 8380 ng/mL

**Q.** And the Tmax ([1]; male, 1 mg/kg)?
**A.** 0.67 h

**Q.** And the AUC(0-t) [1, 2]?
**A.** 55500 ng·h/mL

**Q.** Which results are given for `COc1cc2c(cc1S(=O)(=O)Nc1noc3cc(Cn4cccn4)nc(OC)c13)CCCO2` [Example 76, N-(6-((1H-Pyrazol-1-yl)methyl)-4-methoxyisoxazolo[4,5-c]pyridin-3-yl)-7-methoxy-3,4-dihydro-1H-benzopyran-6-sulfonamide]?
**A.** IC50 (KAT7): 86.6 nM; AUC(0-inf) ([1]; 1 mg/kg): 749000 ng·h/mL; Cmax ([1]; 1 mg/kg): 14000 ng/mL; Tmax ([1]; 1 mg/kg): 2 h; half-life ([1]; 1 mg/kg): 45.4 h; AUC(0-t) at 48 h ([1]; 1 mg/kg, read-out: AUC0-48h): 225000 ng·h/mL
